Experimental data taken from patent publication US8748481B2, “Method for treating gastrointestinal disorder” (Sucampo AG, priority 2004, dated 2014).
Marks after values point to notes of the source that are not given here.

Test system: subjects with occasional constipation
Assay: MOS SF-36 quality of life assessment, 48-week study (Example 6)
Format: in vivo, human
Description: A 48-week multi-center study was performed to assess the safety and efficacy of 48 μg (total daily dose) of Compound A to subjects with occasional constipation. […] After 14-day drug-free washout period, they received orally 48 μg of Compound A (24 μg of […], b.i.d) daily for 48 weeks.
The subjects completed the Medical Outcomes Study (MOS) 36-item short form (SF-36), i.e., a conventionally used QOL assessment form, at enrollment (baseline) and end of treatment (Week 48). Components of the MOS SF-36 (Med Care 30(6),473-483, 1992) are outlined below: • Physical component: Physical Function; Role-Physical, Bodily Pain and General Health • Mental component: Vitality, Social Function, Role-Emotional and Mental Health
Each of the 8 components was scored within the guidelines of the publisher, including the publisher's guidelines for imputing missing variables. The change from baseline in each of the 8 component scores at the end of treatment (Week 48) were recorded and evaluated with paired t-tests.

CCCCC(F)(F)C(=O)CCC1C(O)CC(=O)C1CCCCCCC(=O)O (centres unmarked) [Compound A, 13,14-dihydro-15-keto-16,16-difluoro-PGE1]
Effect on QOL of the patients (SF-36) (48 μg/day, 48 weeks): improves the QOL | SF36 Bodily Pain score, Mean (Baseline): 47.53 | SF36 General Health score, Mean (Baseline): 51.52 | SF36 Mental Health score, Mean (Baseline): 50.60 | SF36 Physical Function score, Mean (Baseline): 49.04 | SF36 Role-Emotional score, Mean (Baseline): 49.52 | SF36 Role-Physical score, Mean (Baseline): 49.75 | SF36 Social Function score, Mean (Baseline): 50.12 | SF36 Vitality score, Mean (Baseline): 50.61 | SF36 Bodily Pain score, Mean change from baseline (Week 48, 48 μg/day): 3.38** | SF36 General Health score, Mean change from baseline (Week 48, 48 μg/day): 1.47* | SF36 Mental Health score, Mean change from baseline (Week 48, 48 μg/day): 1.97** | SF36 Physical Function score, Mean change from baseline (Week 48, 48 μg/day): 2.48** | SF36 Role-Emotional score, Mean change from baseline (Week 48, 48 μg/day): 1.22 | SF36 Role-Physical score, Mean change from baseline (Week 48, 48 μg/day): 1.95** | SF36 Social Function score, Mean change from baseline (Week 48, 48 μg/day): 2.22** | SF36 Vitality score, Mean change from baseline (Week 48, 48 μg/day): 2.89**
